Activity calls are given as the source filed them.
Experiments:
[1] = loss of viability in HepG2 cells – cell-based, CellTiter-Glo, cherry-picked, cytotoxicity control for Shn3 inhibitor project, dose response (AID 624134); type: functional
[2] = non-specific 3'UTR reporter inhibition in Clone20-Shn3RL – cell-based, Renilla luciferase, cherry-picked, counter-screen for Shn3 inhibitor project, dose response (AID 624133); type: functional
[3] = general cell-killing toxicity readout – plate reader, dry powder samples, cytotoxicity control for PAX8 inhibitor project, dose response (AID 743021); type: functional, cell-based
[4] = Fluorescence-based cell-based high throughput dose response assay for inhibitors of the interaction of nucleotide-binding oligomerization domain containing 2 (NOD2) and the receptor-interacting serine-threonine kinase 2 (RIPK2).; type: functional; details: Homo sapiens
[5] = reduction of Shn3 3'UTR-driven luciferase in osteoblasts – cell-based, Clone20 osteoblasts, firefly luciferase, cherry-picked, dose response (AID 624132); type: functional;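 note: firefly luciferase luminescence from reporter carrying the Shn3 3'UTR in osteoblasts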
Beta Lactamase = Beta Lactamase (Pseudomonas aeruginosa, UniProt Q932Y6); assay: BLA reporter interference, concentration series – BLA reporter cells, FRET fluorescence, artefact control for NOD2-RIPK2 interaction inhibitor project, dose response (AID 651552); type: functional, cell-based
Beta Lactamase, sequence (Q932Y6 whole entry): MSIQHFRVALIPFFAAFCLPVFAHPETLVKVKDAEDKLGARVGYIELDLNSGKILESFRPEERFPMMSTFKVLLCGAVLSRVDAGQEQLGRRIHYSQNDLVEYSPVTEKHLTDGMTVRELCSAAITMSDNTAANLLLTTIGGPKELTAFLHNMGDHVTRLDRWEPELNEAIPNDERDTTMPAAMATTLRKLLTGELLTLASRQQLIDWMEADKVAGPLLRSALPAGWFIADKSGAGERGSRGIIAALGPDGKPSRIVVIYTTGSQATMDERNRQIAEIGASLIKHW

Paired box protein Pax-8 = Paired box protein Pax-8 (Homo sapiens, UniProt Q06710); assay: PAX8 transcriptional activity inhibition in RMG-I – RMG-I cells, luciferase, cherry-pick, dose response (AID 687027); type: functional, cell-based;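 note: luciferase reporter driven by Pax8 target thyroperoxidase promoter measured by SteadyGlo luminescence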
Paired box protein Pax-8, sequence (Q06710 whole entry): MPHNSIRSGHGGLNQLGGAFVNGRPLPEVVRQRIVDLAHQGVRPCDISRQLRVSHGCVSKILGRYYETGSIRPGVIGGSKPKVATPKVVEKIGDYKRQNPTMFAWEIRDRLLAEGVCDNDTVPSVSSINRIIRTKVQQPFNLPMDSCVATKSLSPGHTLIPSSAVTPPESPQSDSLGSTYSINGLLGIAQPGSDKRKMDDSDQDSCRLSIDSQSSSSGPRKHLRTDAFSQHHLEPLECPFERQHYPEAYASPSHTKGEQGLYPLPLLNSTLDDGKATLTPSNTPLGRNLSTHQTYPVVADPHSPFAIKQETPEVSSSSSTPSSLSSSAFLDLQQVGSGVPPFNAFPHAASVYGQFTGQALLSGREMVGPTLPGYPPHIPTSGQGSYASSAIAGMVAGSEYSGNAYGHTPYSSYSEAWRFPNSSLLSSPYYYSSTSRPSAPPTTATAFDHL

Steroidogenic factor 1 = Steroidogenic factor 1 (Homo sapiens, UniProt Q13285); assay: Counterscreen for inverse agonists of the liver receptor homolog-1 (LRH-1; NR5A2): Luminescence-based cell-based high throughput dose response assay to identify inverse agonists of the Steroidogenic Factor 1 Nuclear Receptor (SF1; NR5A1).; type: functional
Steroidogenic factor 1, sequence (Q13285 whole entry): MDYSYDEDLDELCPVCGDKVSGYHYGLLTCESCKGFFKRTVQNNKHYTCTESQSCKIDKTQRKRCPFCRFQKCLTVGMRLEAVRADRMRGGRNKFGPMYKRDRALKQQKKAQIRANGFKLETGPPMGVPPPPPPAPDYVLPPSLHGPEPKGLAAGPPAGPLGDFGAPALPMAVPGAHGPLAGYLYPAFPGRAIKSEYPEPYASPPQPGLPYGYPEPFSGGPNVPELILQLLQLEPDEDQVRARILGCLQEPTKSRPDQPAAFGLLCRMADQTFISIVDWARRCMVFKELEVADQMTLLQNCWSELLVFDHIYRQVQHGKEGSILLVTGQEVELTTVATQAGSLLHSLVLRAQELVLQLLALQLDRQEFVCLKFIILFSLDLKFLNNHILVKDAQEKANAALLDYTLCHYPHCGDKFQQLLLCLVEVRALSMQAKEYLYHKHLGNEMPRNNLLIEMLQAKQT

[6] = nonselective StAR promoter luciferase inhibitors – cell-based, luminescence, luciferase reporter, counter-screen for LRH-1 inverse agonist project, dose response (AID 651969); type: functional
[7] = molecular target: Nuclear receptor subfamily 5 group A member 2 (Homo sapiens, UniProt O00482); type: functional, cell-based;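 note: HEK293T cells transfected with LRH-1 and a StAR promoter luciferase reporter; potency for inhibitors that lower LRH-1 driven reporter light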
Nuclear receptor subfamily 5 group A member 2, sequence (O00482 whole entry): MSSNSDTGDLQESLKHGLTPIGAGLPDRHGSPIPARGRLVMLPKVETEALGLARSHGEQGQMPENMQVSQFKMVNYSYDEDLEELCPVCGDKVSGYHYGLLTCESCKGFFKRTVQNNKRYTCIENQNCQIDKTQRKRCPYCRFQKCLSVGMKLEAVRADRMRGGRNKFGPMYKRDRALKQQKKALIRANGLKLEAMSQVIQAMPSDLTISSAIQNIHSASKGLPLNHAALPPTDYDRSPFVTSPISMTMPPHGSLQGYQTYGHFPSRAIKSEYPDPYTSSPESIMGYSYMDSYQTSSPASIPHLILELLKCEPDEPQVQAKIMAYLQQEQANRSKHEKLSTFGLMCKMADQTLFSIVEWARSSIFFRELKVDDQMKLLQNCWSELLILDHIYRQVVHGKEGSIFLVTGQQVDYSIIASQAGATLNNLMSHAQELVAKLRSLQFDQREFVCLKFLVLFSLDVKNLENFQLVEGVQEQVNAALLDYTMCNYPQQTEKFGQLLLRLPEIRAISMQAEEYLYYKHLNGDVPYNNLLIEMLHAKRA

[8] = molecular target: T1, Apoptotic protease-activating factor 1 (Homo sapiens, UniProt O14727); assay: SAR analysis of small molecule Activators of Apaf-1 in a Fluorescent assay.; type: functional; details: read-out: EC50_Mean;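 note: caspase-3 cleavage of fluorogenic Rh110 DEVD substrate downstream of apoptosome activation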
T1 sequence (O14727 whole entry): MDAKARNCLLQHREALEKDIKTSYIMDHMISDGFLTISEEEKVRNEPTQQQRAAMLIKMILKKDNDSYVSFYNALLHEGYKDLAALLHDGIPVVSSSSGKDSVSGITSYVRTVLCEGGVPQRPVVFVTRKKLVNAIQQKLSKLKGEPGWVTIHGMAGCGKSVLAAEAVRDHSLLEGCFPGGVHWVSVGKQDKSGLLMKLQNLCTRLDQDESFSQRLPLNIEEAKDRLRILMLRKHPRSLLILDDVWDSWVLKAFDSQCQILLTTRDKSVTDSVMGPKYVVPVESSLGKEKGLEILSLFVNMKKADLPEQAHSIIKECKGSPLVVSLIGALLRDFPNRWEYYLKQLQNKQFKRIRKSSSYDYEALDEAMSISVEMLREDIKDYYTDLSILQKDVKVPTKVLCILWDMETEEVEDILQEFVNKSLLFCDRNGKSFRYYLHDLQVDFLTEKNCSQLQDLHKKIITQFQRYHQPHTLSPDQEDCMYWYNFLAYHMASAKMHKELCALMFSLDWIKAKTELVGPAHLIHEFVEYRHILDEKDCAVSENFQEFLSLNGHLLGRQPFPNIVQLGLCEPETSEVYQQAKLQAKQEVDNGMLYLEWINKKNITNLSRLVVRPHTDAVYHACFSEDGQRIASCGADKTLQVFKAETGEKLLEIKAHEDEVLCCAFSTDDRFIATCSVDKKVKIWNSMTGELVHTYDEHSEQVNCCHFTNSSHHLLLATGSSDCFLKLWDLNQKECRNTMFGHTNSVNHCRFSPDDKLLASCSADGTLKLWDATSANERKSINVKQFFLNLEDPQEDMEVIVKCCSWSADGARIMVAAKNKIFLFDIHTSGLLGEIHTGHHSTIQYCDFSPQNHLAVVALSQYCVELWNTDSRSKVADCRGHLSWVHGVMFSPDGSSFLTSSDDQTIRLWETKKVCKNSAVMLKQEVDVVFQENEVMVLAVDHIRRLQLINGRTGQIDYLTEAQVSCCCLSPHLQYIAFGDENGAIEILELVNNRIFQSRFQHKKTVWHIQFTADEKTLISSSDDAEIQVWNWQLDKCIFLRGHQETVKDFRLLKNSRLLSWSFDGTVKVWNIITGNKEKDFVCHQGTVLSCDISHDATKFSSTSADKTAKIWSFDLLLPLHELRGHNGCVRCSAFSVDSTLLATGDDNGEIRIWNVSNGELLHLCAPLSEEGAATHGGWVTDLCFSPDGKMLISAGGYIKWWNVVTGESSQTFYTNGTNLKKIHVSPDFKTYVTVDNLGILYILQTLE

[9] = viability loss in LCL cells – cell-based, plate reader, dry powder, set 2, cytotoxicity control, dose response (AID 624367); type: functional
[10] = A2780 cell killing – plate reader, dry powder samples, cytotoxicity control, dose response (AID 743046); type: functional, cell-based
[11] = TNFa-induced NF-kB reporter signal decrease – HEK293 LMP1 reporter cells, dry powder, set 2, selectivity assay for EBV LMP1 NF-kB inhibitor project, dose response (AID 624369); type: functional
[12] = molecular target: Matrix metalloproteinase-14 (Homo sapiens, UniProt P50281); assay: Dose Response confirmation of uHTS hits for a small molecule inhibitors of MT1-MMP activation in a fluorescence assay set 1.; type: functional
[13] = molecular target: ADP-ribosylation factor GTPase-activating protein 1 (Rattus norvegicus, UniProt Q62848); assay: Fluorescence polarization-based biochemical high throughput dose response screening assay to identify inhibitors of ADP-ribosylation factor GTPase activating protein 1 (ARFGAP1).; type: functional
ADP-ribosylation factor GTPase-activating protein 1, sequence (Q62848 whole entry): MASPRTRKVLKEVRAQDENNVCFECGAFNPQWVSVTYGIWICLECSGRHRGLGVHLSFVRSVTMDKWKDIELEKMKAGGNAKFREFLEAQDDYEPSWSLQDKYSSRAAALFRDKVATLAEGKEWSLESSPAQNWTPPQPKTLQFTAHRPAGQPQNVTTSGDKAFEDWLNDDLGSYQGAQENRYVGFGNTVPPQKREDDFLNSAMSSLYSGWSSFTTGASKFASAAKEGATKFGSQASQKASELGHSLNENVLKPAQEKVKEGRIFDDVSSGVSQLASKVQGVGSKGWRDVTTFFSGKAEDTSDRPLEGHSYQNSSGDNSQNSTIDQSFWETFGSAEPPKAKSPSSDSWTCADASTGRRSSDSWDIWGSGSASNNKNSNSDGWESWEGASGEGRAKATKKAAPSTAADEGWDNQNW

In the case of `C=C1C(=O)C23C(O)C1CCC2C12CCCC(C)(COC(C)=O)C1C(O)C3(O)OC2` (configuration not stated), the AC50 [1] is reported as 11.8 µM (active), the AC50 [2] is reported as 3.84 µM (active) and the AC50 [3] is reported as 28.9 µM (active). For the same molecule, the IC50 [4] was 1.19 µM (active), the AC50 [5] was 0.771 µM (active) and the IC50 (Beta Lactamase) was 22.1 µM (inactive). The AC50 (Paired box protein Pax-8) was 1.86 µM (active).
For `COc1ccc(OCCNC(=O)C2(C)CCN2Cc2ccc3ccccc3c2)cc1` (configuration not stated), the IC50 (Steroidogenic factor 1) was 6.42 µM (active), the IC50 [6] was 35.9 µM (inactive) and the IC50 [7] was 9.8 µM (active).
For `O=C(NCCCN1CCOCC1)C1CC(c2ccc(F)cc2)=NO1` (configuration not stated), the EC50 [8] was > 100 µM (inactive).
For `O=C(Nc1ccc(C(F)(F)F)cc1)Nc1ccc2c(c1)[C@H]1C[C@H](CC(=O)N3CCc4ccccc4C3)O[C@H](CO)[C@H]1O2`, the AbsAC35 [9] was 42.44 µM, the AC50 [10] was 57.4 µM (active) and the AC50 (Paired box protein Pax-8) was 7.26 µM (active). For the same molecule, the AbsAC35 [11] was 66.25 µM.
For `CCOC(=O)C1=C(C)N=c2s/c(=C\c3ccc(OC(C)=O)c(OCC)c3)c(=O)n2C1/C=C/c1ccccc1` (configuration not stated), the IC50 [12] was 6 µM (active).
In the case of `O/N=C\c1ccc2noc(-c3ccc(Cl)cc3)c2c1`, the IC50 [13] is reported as 50.7 µM (inactive).

From ChEMBL document CHEMBL1201862, “PubChem BioAssay data set” (2004)
